Measurements from US20090326001A1, “THIENOPYRIDINE DERIVATIVES AS MODULATORS OF METABOTROPIC GLUTAMATE RECEPTORS” (priority 2005, published 2009).

Columns and labels:
mGluR5 = biological target: T1, mGluR5 (UniProt P31424); test: mGluR5 receptor binding test ([3H]-M-MPEP displacement); settings: radioligand [3H]-M-MPEP 2 nM; table does not say rat cerebro-cortical membrane or human mGluR5a A18 cells; read-out: mGlu5 Ki
T1 construct: Rat cerebro-cortical membrane preparation
Experimental: Rat cerebro-cortical membrane preparation was used to determine the binding characteristics of reference compounds and novel compounds to the rat mGluR5. The A18 cell line expressing hmGluR5a (purchased from Euroscreen) was used to determine binding characteristics of the chemical compounds to the human mGluR5a receptor. As radioligand [3H]-M-MPEP (2 nM) was used. The nonspecific binding was determined in the presence of 10 μM M-MPEP.

rat mGluR1 = biological target: T2, rat mGluR1 (Rattus norvegicus, UniProt P23385); test: mGluR1 receptor binding test ([3H]R214127 displacement, rat cerebellar membrane); settings: radioligand [3H]R214127 3 nM, read-out: mGlu1 Ki
T2 construct: rat cerebellar membrane preparation was used; from tissue; host or cells: rat cerebellum (membrane preparation)
T2 sequence (P23385 19-1199): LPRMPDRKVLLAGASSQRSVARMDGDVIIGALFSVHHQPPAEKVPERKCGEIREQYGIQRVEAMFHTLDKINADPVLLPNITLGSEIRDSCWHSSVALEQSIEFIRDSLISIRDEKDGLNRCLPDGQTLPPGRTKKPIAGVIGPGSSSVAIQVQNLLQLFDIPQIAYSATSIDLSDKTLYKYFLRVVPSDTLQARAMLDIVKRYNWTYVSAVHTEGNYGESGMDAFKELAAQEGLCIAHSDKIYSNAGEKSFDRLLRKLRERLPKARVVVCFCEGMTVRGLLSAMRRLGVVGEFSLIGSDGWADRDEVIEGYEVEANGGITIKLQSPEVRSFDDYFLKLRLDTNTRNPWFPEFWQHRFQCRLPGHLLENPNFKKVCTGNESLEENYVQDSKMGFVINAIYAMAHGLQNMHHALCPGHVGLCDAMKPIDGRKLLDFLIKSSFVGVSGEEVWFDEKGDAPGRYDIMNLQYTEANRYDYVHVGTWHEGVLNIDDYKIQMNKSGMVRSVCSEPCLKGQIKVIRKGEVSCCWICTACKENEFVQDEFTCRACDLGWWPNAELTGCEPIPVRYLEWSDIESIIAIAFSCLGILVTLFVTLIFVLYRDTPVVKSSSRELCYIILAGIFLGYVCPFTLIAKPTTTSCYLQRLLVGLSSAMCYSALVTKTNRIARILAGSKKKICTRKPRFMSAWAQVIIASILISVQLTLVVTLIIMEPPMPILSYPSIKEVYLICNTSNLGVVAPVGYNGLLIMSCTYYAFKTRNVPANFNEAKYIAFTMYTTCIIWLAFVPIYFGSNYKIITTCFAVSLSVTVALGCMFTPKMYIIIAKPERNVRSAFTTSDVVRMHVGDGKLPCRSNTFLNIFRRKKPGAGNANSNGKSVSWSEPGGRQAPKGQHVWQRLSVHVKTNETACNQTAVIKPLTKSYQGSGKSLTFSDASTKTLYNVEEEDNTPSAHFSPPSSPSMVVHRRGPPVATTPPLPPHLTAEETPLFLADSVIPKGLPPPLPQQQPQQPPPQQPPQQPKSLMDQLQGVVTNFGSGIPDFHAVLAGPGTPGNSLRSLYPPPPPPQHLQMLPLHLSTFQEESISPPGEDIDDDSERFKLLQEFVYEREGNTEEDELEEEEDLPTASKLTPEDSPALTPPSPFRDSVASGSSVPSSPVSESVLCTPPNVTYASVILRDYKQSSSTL
Experimental: MGluR1 receptor binding testes were performed according to modified method of Lavreysen et al. (Mol. Pharm., 2003, 63, 1082). Based on the high homology between the human and rat mGluR1 receptors, rat cerebellar membrane preparation was used to determine the binding characteristics of reference compounds and novel compounds to the rat mGluR1. As radioligand [3H]R214127 (3 nM) was used and the nonspecific binding was determined in the presence of 1 μM of R214127.
IC-50 values were determined from displacement curves by nonlinear regression analysis and were converted by equation method of Cheng and Prusoff (Biochem. Pharmacol., 1973, 22, 3099) to Ki values.

Compound	Ki (mGluR5) [nM]	Ki (rat mGluR1) [nM]
3-(4-Fluoro-phenyl)-1-[3-(4-fluoro-phenyl)-thieno[2,3-b]pyridin-2-yl]-propenone [Compound 10]	> 1500	< 500
O=C(Cc1ccc(F)cc1)c1sc2ncccc2c1-c1ccc(Cl)cc1 [Compound 1, 1-[3-(4-chloro-phenyl)-thieno[2,3-b]pyridin-2-yl]-2-(4-fluoro-phenyl)-ethanone]	< 500	< 500
O=C(Cc1ccc(F)c(F)c1)c1sc2ncccc2c1-c1ccc(Cl)cc1 [Compound 2, 1-[3-(4-chloro-phenyl)-thieno[2,3-b]pyridin-2-yl]-2-(3,4-difluoro-phenyl)-ethanone]	< 500	< 500
O=C(Cc1ccc(F)cc1)c1sc2ncccc2c1-c1ccc(F)cc1 [Compound 3, 2-(4-fluoro-phenyl)-1-[3-(4-fluoro-phenyl)-thieno[2,3-b]pyridin-2-yl]-ethanone]	< 500	< 500
O=C(CCc1cccc(F)c1)c1sc2ncccc2c1-c1ccc(F)cc1 [Compound 4, 3-(3-fluoro-phenyl)-1-[3-(4-fluoro-phenyl)-thieno[2,3-b]pyridin-2-yl]-propan-1-one]	< 500	< 500
O=C(CCc1ccc(F)cc1)c1sc2ncccc2c1-c1ccc(F)cc1 [Compound 5, 3-(4-Fluoro-phenyl)-1-[3-(4-fluoro-phenyl)-thieno[2,3-b]pyridin-2-yl]-propan-1-one]	< 500	< 500
O=C(CCc1ccoc1)c1sc2ncccc2c1-c1ccc(F)cc1 [Compound 16]	500 to 1500	500 to 1500
O=C(CCc1ccccn1)c1sc2ncccc2c1-c1ccc(F)cc1 [Compound 17]	500 to 1500	< 500
O=C(CCc1cccs1)c1sc2ncccc2c1-c1ccc(F)cc1 [Compound 18]	500 to 1500	< 500
O=C(CCc1ccsc1)c1sc2ncccc2c1-c1ccc(F)cc1 [Compound 19, 1-[3-(4-fluoro-phenyl)-thieno[2,3-b]pyridin-2-yl]-3-thiophen-3-yl-propan-1-one]	< 500	< 500
O=C(OCc1ccc(F)cc1)c1sc2ncccc2c1-c1ccc(Cl)cc1 [Compound 20, 3-(4-chloro-phenyl)-thieno[2,3-b]pyridine-2-carboxylic acid 4-fluoro-benzyl ester]	< 500	< 500
CCOC(=O)CC(=O)c1sc2ncccc2c1-c1ccc(C)cc1 [Compound 22, 3-oxo-3-(3-p-tolyl-thieno[2,3-b]pyridin-2-yl)-propionic acid ethyl ester]	< 500	< 500
CCOC(=O)CC(=O)c1sc2ncccc2c1-c1ccc(Cl)cc1 [Compound 23, 3-[3-(4-Chloro-phenyl)-thieno[2,3-b]pyridin-2-yl]-3-oxo-propionic acid ethyl ester]	< 500	< 500
CCOC(=O)CC(=O)c1sc2ncccc2c1-c1ccc(F)cc1 [Compound 24, 3-[3-(4-fluoro-phenyl)-thieno[2,3-b]pyridin-2-yl]-3-oxo-propionic acid ethyl ester]	< 500	< 500
CCOC(=O)CC(=O)c1sc2ncccc2c1-c1ccccc1 [Compound 25, 3-oxo-3-(3-phenyl-thieno[2,3-b]pyridin-2-yl)-propionic acid ethyl ester]	< 500	< 500
CCOC(=O)CC(=O)c1sc2nc(C)ccc2c1-c1ccc(Cl)cc1 [Compound 26, 3-[3-(4-chloro-phenyl)-6-methyl-thieno[2,3-b]pyridin-2-yl]-3-oxo-propionic acid ethyl ester]	< 500	< 500
O=C(NCc1ccc(F)cc1)c1sc2ncccc2c1-c1ccc(F)cc1 [Compound 27, 3-(4-Fluoro-phenyl)-thieno[2,3-b]pyridin-2-carboxylic acid (4-fluoro-benzyl)-amide]	< 500	< 500
CN(Cc1cccs1)C(=O)c1sc2ncccc2c1-c1ccc(Cl)cc1 [Compound 30]	> 1500	> 1500
CN(Cc1ccc(F)cc1)C(=O)c1sc2ncccc2c1-c1ccc(Cl)cc1 [Compound 34]	> 1500	500 to 1500
O=C(Nc1nccs1)c1sc2ncccc2c1-c1ccc(Cl)cc1 [Compound 35]	> 1500	> 1500
O=C(Nc1ccc(F)cc1)c1sc2ncccc2c1-c1ccc(F)cc1 [Compound 37]	> 1500	> 1500
